pIC50: −log10 of the molar value. Where a name gives a salt, the structure may show the parent alone. Read-outs that look alike come from different tables or passages of the source.
Tests used:
[1] = biological target: baculovirus-expressed JAK2 kinase (Homo sapiens, UniProt O60674); test: biochemical; settings: read-out: JAK2 Potency
Description: Compounds were tested for their ability to inhibit the kinase activity of baculovirus-expressed JAK2 kinase using the time-resolved fluorescence (TRF) detection system. […] The plates were coated with 100 μL/well of 10 μg/mL Neutravidin (Pierce #31000, Rockford, Ill.) in TBS at 37° C. for 2 h, followed by 100 μL/well of 1 μg/mL 15-mer peptide substrate (biotinyl-amino-hexanoyl-[…]-amide, Infinity Biotech Research and Resource, Aston, Pa.) at 37° C. for 1 h. […] Enzyme (15 ng/mL JAK2) was added and the reaction was allowed to proceed at room temperature for 20 min. […] Inhibition data were analyzed using ActivityBase (IDBS, Guilford, UK). IC50 values were calculated by plotting percent inhibition versus log10 of the concentration of compound and fitting to the nonlinear regression sigmoidal dose-response (variable slope) equation in XLFit (IDBS, Guilford, UK).

[2] = biological target: baculovirus-expressed ALK (Homo sapiens, UniProt Q9UM73); test: ALK kinase inhibition, TRF/ELISA; format: biochemical; settings: read-out: ALK Potency
baculovirus-expressed ALK, sequence (Q9UM73 19-1620): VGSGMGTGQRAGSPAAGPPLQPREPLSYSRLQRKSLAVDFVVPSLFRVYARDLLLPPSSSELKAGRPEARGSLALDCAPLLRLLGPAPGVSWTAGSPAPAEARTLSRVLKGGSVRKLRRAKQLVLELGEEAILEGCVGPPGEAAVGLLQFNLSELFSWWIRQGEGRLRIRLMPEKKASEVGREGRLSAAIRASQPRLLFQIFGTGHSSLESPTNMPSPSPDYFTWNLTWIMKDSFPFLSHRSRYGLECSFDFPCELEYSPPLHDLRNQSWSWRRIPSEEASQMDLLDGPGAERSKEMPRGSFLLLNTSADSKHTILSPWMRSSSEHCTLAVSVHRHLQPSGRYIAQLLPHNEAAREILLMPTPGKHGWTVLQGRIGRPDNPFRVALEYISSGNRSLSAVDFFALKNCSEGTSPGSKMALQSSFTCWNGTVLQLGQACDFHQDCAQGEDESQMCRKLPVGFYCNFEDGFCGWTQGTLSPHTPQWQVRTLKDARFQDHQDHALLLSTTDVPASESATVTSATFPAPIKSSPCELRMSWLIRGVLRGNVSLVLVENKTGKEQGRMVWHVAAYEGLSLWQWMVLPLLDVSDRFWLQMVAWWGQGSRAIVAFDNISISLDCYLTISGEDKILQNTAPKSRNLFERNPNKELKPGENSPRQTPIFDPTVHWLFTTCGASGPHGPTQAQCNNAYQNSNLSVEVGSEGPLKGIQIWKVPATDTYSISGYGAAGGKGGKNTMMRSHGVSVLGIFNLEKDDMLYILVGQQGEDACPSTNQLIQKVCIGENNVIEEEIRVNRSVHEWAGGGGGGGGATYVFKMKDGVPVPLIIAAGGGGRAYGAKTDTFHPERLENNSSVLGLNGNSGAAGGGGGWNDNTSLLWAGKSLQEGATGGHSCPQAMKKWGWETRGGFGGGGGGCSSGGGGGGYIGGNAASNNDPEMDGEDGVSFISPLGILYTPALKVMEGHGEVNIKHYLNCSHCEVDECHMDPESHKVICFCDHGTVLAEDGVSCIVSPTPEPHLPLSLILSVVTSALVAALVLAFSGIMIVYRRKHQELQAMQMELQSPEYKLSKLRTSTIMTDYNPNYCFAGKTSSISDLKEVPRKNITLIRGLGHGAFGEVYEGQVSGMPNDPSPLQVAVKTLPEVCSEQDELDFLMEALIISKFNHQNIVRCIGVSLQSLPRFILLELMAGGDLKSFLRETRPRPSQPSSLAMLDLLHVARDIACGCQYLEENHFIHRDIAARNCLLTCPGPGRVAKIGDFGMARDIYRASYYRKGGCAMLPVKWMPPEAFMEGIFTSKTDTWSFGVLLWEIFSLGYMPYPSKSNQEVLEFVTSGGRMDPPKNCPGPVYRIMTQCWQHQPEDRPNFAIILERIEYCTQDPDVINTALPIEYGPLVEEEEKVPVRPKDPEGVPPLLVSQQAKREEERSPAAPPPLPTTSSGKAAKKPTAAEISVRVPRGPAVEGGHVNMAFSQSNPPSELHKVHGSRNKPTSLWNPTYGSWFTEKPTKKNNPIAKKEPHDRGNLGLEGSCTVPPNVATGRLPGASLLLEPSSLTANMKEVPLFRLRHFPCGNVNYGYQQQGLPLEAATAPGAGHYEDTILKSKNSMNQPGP
Description: Briefly, each 96-well plate was coated with 100 μL/well of 10 μg/mL substrate (GST-PLC-γ) in Tris-buffered saline (TBS). […] The reaction was initiated by adding enzyme (30 ng/mL ALK) and was allowed to proceed at 37° C. for 15 minutes. Detection of the phosphorylated product was performed by adding 100 μL/well of Eu-N1 labeled PT66 antibody (Perkin Elmer #AD0041). […] Data analysis was performed using ActivityBase (IDBS, Guilford, UK). IC50 values were calculated by plotting percent inhibition versus log10 of the concentration of compound and fitting to the nonlinear regression sigmoidal dose-response (variable slope) equation in XLFit (IDBS, Guilford, UK).

baculovirus-expressed JAK2 kinase, sequence (O60674 whole entry): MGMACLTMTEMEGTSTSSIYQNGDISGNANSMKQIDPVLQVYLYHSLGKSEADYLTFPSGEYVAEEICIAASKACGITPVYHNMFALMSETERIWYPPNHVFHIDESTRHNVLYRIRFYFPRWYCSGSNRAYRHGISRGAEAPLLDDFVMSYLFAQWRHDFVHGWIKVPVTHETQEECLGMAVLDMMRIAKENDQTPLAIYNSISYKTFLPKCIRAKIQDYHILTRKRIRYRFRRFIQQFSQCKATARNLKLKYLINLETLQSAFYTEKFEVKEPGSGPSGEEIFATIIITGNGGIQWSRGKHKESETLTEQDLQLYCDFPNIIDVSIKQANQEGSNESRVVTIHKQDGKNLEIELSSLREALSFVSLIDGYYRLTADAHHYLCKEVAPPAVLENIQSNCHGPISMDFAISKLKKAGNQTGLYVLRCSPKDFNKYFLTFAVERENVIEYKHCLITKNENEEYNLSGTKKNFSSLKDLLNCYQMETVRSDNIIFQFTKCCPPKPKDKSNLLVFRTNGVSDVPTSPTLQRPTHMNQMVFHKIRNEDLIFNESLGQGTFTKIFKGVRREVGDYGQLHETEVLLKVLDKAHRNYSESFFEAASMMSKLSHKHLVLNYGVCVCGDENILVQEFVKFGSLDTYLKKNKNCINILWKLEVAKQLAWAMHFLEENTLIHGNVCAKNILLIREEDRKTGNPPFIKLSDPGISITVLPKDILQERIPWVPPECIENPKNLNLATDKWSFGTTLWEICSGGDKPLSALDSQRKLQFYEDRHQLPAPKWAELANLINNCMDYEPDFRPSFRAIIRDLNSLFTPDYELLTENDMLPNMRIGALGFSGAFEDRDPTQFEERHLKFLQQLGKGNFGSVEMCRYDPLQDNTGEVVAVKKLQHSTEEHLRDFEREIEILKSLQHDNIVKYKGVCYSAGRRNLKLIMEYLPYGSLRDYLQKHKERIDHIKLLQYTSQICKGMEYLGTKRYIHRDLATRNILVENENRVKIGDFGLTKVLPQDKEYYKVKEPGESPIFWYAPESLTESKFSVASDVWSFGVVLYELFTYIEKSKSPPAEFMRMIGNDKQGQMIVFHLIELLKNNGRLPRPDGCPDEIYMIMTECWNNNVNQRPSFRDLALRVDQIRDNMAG

pIC50 ([1]; 0.2 μM ATP) | pIC50 [2] | Compound | also measured
> 7.00 | > 7.00 | NC(=O)[C@@H]1[C@H](Nc2c(Cl)cnc3[nH]c(-c4ccc(OCCN5CCOCC5)cc4)nc23)[C@H]2C=C[C@@H]1C2 [Compound CCXXXIX, (1S,2S,3R,4R)-3-(6-chloro-2-(4-(2-morpholinoethoxy)phenyl)-3H-imidazo[4,5-b]pyridin-7-ylamino)bicyclo[2.2.1]hept-5-ene-2-carboxamide] | 
6.00 to 7.00 |  | NC(=O)[C@H]1[C@@H](Nc2c(Cl)cnc3[nH]c(-c4cccc(N5CCOCC5)c4)nc23)[C@@H]2C=C[C@H]1C2 [Compound XXV, (1R,2R,3S,4S)-3-[6-Chloro-2-(3-morpholin-4-yl-phenyl)-3H-imidazo[4,5-b]pyridine-7-ylamino]-bicyclo[2.2.1]hept-5-ene-2-carboxylic acid amide] | 
> 7.00 |  | NC(=O)[C@@H]1[C@H](Nc2c(Cl)cnc3[nH]c(-c4ccc(N5CCOCC5)cc4)nc23)[C@H]2C=C[C@@H]1C2 [Compound IV, (1S,2S,3R,4R)-3-[6-Chloro-2-(4-morpholin-4-yl-phenyl)-3H-imidazo[4,5-b]pyridine-7-ylamino]-bicyclo[2.2.1]hept-5-ene-2-carboxylic acid amide] | 
> 7.00 |  | COc1cc(N2CCN(C)CC2)ccc1-c1nc2c(N[C@H]3[C@@H](C(N)=O)[C@@H]4C=C[C@H]3C4)c(Cl)cnc2[nH]1 [Compound XXI, (1S,2S,3R,4R)-3-{6-Chloro-2-[2-methoxy-4-(4-methyl-piperazin-1-yl)-phenyl]-3H-imidazo[4,5-b]pyridin-7-ylamino}-bicyclo[2.2.1]hept-5-ene-2-carboxylic acid amide trifluoroacetic acid salt] | 
6.00 to 7.00 |  | COc1cc(N2CCN(C)CC2)ccc1-c1nc2c(N[C@@H]3[C@H](C(N)=O)[C@H]4C=C[C@@H]3C4)c(Cl)cnc2[nH]1 [Compound XXVIII, (1R,2R,3S,4S)-3-{6-Chloro-2-[2-methoxy-4-(4-methyl-piperazin-1-yl)-phenyl]-3H-imidazo[4,5-b]pyridin-7-ylamino}-bicyclo[2.2.1]hept-5-ene-2-carboxylic acid amide] | 
> 7.00 |  | CN1CCN(c2ccc(-c3nc4c(N[C@@H]5[C@H](C(N)=O)[C@H]6C=C[C@@H]5C6)c(Cl)cnc4[nH]3)cc2)CC1 [Compound XXVI, (1R,2R,3S,4S)-3-{6-Chloro-2-[4-(4-methyl-piperazin-1-yl)-phenyl]-3H-imidazo[4,5-b]pyridine-7-ylamino}-bicyclo[2.2.1]hept-5-ene-2-carboxylic acid amide] | 
> 7.00 |  | COc1cccc(-c2nc3c(N[C@H]4[C@@H](C(N)=O)[C@@H]5C=C[C@H]4C5)c(Cl)cnc3[nH]2)c1 [Compound V, (1S,2S,3R,4R)-3-[6-Chloro-2-(3-methoxy-phenyl)-3H-imidazo[4,5-b]pyridin-7-ylamino]-bicyclo[2.2.1]hept-5-ene-2-carboxylic acid amide] | 
> 7.00 |  | CN1CCN(c2ccc(-c3nc4c(N[C@H]5[C@@H](C(N)=O)[C@@H]6C=C[C@H]5C6)c(Cl)cnc4[nH]3)cc2)CC1 [Compound X, (1S,2S,3R,4R)-3-{6-Chloro-2-[4-(4-methyl-piperazin-1-yl)-phenyl]-3H-imidazo[4,5-b]pyridine-7-ylamino}-bicyclo[2.2.1]hept-5-ene-2-carboxylic acid amide trifluoroacetic acid salt] | 
> 7.00 |  | NC(=O)[C@@H]1[C@H](Nc2c(Cl)cnc3[nH]c(-c4cccc(N5CCOCC5)c4)nc23)[C@H]2C=C[C@@H]1C2 [Compound VII, (1S,2S,3R,4R)-3-[6-Chloro-2-(3-morpholin-4-yl-phenyl)-3H-imidazo[4,5-b]pyridine-7-ylamino]-bicyclo[2.2.1]hept-5-ene-2-carboxylic acid amide] | 

The remaining lines, values behind:

Compound | pIC50 ([1]; 0.2 μM ATP) | pIC50 [2] | also measured
NC(=O)[C@@H]1[C@H](Nc2c(Br)cnc3[nH]c(-c4cccc(F)c4)nc23)[C@H]2C=C[C@@H]1C2 [Compound CXXXII, (1S,2S,3R,4R)-3-[6-Bromo-2-(3-fluoro-phenyl)-3H-imidazo[4,5-b]pyridin-7-ylamino]-bicyclo[2.2.1]hept-5-ene-2-carboxylic acid amide] | > 7.00 | 6.00 to 7.00 | 
NC(=O)[C@@H]1[C@H](Nc2c(Br)cnc3[nH]c(-c4sc(N5CCCC5)nc4Cl)nc23)[C@H]2C=C[C@@H]1C2 [Compound CLXVII, (1S,2S,3R,4R)-3-[6-Bromo-2-(4-chloro-2-pyrrolidin-1-yl-thiazol-5-yl)-3H-imidazo[4,5-b]pyridin-7-ylamino]-bicyclo[2.2.1]hept-5-ene-2-carboxylic acid amide] | > 7.00 | > 7.00 | 
CN(C)C(=O)[C@@H]1[C@H](Nc2c(Cl)cnc3[nH]c(-c4sc(N5CCCC5)nc4Cl)nc23)[C@H]2C=C[C@@H]1C2 [Compound CLXIV, (1S,2S,3R,4R)-3-[6-Chloro-2-(4-chloro-2-pyrrolidin-1-yl-thiazol-5-yl)-3H-imidazo[4,5-b]pyridin-7-ylamino]-bicyclo[2.2.1]hept-5-ene-2-carboxylic acid dimethylamide] | > 7.00 | > 7.00 | 
COc1ccccc1-c1nc2c(N[C@H]3[C@@H](C(N)=O)[C@@H]4C=C[C@H]3C4)c(Cl)cnc2[nH]1 [Compound IX, (1S,2S,3R,4R)-3-[6-Chloro-2-(2-methoxy-phenyl)-3H-imidazo[4,5-b]pyridine-7-ylamino]-bicyclo[2.2.1]hept-5-ene-2-carboxylic acid amide] | > 7.00 |  | 
Cc1nn(C)c(C)c1-c1nc2c(N[C@H]3[C@@H](C(N)=O)[C@@H]4C=C[C@H]3C4)c(Br)cnc2[nH]1 [Compound CLII, (1S,2S,3R,4R)-3-[6-Bromo-2-(1,3,5-trimethyl-1H-pyrazol-4-yl)-3H-imidazo[4,5-b]pyridin-7-ylamino]-bicyclo[2.2.1]hept-5-ene-2-carboxylic acid amide] | > 7.00 | > 7.00 | 
NC(=O)[C@@H]1[C@H](Nc2c(Cl)cnc3[nH]c(C4CCCNC4)nc23)[C@H]2C=C[C@@H]1C2 (single isomer, unassigned) [XIV] | < 5.00 |  | pIC50 ([2]; 1 μM ATP (Km level)): < 5.00
NC(=O)[C@@H]1[C@H](Nc2c(Br)cnc3[nH]c(-c4ccc(F)cc4)nc23)[C@H]2C=C[C@@H]1C2 [Compound CXXXIII, (1S,2S,3R,4R)-3-[6-Bromo-2-(4-fluoro-phenyl)-3H-imidazo[4,5-b]pyridin-7-ylamino]-bicyclo[2.2.1]hept-5-ene-2-carboxylic acid amide] | > 7.00 | 6.00 to 7.00 | 
CC12CCC(Nc3c(Cl)cnc4[nH]c(-c5ccc(N6CCOCC6)cc5)nc34)(CC1=O)C2(C)C (centres unmarked) [Compound CXCVIII, 4-(6-chloro-2-(4-morpholinophenyl)-3H-imidazo[4,5-b]pyridin-7-ylamino)-1,7,7-trimethylbicyclo[2.2.1]heptan-2-one] | > 7.00 | < 5.00 | 
CN1CCN(CCOc2ccc(-c3nc4c(N[C@H]5[C@@H](C(N)=O)[C@@H]6C=C[C@H]5C6)c(Cl)cnc4[nH]3)cc2)CC1 [Compound CCL, (1S,2S,3R,4R)-3-(6-chloro-2-(4-(2-(4-methylpiperazin-1-yl)ethoxy)phenyl)-3H-imidazo[4,5-b]pyridin-7-ylamino)bicyclo[2.2.1]hept-5-ene-2-carboxamide] | > 7.00 | > 7.00 | 
COc1cc(N2CCC(N3CCN(C)CC3)CC2)ccc1-c1nc2c(N[C@H]3[C@@H](C(N)=O)[C@@H]4C=C[C@H]3C4)c(Cl)cnc2[nH]1 [Compound XXIII, (1S,2S,3R,4R)-3-(6-Chloro-2-{2-methoxy-4-[4-(4-methyl-piperazin-1-yl)-piperidin-1-yl]-phenyl}-3H-imidazo[4,5-b]pyridin-7-ylamino)-bicyclo[2.2.1]hept-5-ene-2-carboxylic acid amide] | > 7.00 |  | 
NC(=O)[C@@H]1[C@H](Nc2c(Cl)cnc3[nH]c(-c4cnn(C5CCNCC5)c4)nc23)[C@H]2C=C[C@@H]1C2 [Compound LVII, (1S,2S,3R,4R)-3-[6-Chloro-2-(1-piperidin-4-yl-1H-pyrazol-4-yl)-3H-imidazo[4,5-b]pyridine-7-ylamino]-bicyclo[2.2.1]hept-5-ene-2-carboxylic acid amide] | > 7.00 |  | 
COc1ccc(-c2nc3c(N[C@H]4[C@@H](C(N)=O)[C@@H]5C=C[C@H]4C5)c(Cl)cnc3[nH]2)cc1 [Compound VI, (1S,2S,3R,4R)-3-[6-Chloro-2-(4-methoxy-phenyl)-3H-imidazo[4,5-b]pyridine-7-ylamino]-bicyclo[2.2.1]hept-5-ene-2-carboxylic acid amide] | > 7.00 |  | 
Cn1cc(-c2nc3c(N[C@H]4[C@@H](C(N)=O)[C@@H]5C=C[C@H]4C5)c(Cl)cnc3[nH]2)cn1 [Compound VIII, (1S,2S,3R,4R)-3-[6-Chloro-2-(1-methyl-1H-pyrazol-4-yl)-3H-imidazo[4,5-b]pyridine-7-ylamino]-bicyclo[2.2.1]hept-5-ene-2-carboxylic acid amide] | > 7.00 |  | 
4-{2-[7-((1R,2R,3S,4S)-3-Carbamoyl-bicyclo[2.2.1]hept-5-en-2-ylamino)-6-chloro-3H-imidazo[4,5-b]pyridine-2-yl}-5-methoxy-phenyl]-piperidinej-1-carboxylic acid tert-butyl ester [Compound XXIX] |  |  | pIC50 [1]: 5.00 to 6.00
